Values quoted from earlier work in article PMC9516332 (Frontiers in Oncology, 2022).
Where two headings read alike, the source gives them in different places.

How the values were obtained:
Conditions in all cases: cited from earlier work
[1] = target: panel of 255 wild-type kinases (Homo sapiens, UniProt Q9H4A3)
[2] = target: T1, panel of 255 wild-type kinases (Homo sapiens, UniProt O15530)
T1 sequence (O15530 1-556): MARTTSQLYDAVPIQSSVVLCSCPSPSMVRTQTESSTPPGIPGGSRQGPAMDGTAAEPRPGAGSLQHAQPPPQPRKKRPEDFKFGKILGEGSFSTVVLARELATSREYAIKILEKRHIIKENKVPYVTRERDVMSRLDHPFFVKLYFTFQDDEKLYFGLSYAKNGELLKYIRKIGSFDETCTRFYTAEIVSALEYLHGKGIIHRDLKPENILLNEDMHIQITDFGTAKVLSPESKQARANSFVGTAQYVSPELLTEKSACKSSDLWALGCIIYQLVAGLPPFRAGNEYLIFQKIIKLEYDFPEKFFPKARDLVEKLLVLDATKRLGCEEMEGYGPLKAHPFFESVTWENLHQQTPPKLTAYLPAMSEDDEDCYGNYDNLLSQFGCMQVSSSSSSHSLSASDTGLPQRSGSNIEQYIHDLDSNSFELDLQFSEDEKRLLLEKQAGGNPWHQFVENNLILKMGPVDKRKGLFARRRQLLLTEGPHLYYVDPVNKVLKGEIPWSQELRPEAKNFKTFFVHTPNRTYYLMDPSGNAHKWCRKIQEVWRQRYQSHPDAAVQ

[3] = target: panel of 255 wild-type kinases (Homo sapiens, UniProt P29317)
[4] = target: T2, panel of 255 wild-type kinases (Homo sapiens, UniProt P29320)
T2 sequence (P29320 21-983): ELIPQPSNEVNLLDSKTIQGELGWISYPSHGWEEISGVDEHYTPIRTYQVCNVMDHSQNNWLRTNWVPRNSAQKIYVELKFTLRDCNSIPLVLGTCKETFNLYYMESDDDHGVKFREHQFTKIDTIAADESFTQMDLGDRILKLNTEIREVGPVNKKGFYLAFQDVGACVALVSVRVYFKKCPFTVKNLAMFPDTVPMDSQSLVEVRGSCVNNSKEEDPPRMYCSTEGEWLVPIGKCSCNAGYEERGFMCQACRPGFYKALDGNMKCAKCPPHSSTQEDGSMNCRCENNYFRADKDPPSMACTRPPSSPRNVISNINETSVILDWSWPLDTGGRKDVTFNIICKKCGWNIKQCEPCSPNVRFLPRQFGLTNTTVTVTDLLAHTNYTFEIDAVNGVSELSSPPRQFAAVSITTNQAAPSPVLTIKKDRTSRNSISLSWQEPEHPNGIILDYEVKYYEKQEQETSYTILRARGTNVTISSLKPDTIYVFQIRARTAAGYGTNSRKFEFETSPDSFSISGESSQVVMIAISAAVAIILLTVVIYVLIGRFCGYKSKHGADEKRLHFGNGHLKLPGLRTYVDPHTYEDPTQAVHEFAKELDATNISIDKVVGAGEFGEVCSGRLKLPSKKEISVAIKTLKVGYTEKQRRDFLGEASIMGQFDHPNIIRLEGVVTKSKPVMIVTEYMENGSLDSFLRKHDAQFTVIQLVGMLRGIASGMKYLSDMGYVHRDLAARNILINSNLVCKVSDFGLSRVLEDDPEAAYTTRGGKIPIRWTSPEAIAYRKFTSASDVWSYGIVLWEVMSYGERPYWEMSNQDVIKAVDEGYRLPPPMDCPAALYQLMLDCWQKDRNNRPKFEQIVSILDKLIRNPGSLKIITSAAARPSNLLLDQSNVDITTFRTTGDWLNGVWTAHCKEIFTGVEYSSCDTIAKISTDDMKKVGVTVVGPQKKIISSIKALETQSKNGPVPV

[5] = target: T3, panel of 255 wild-type kinases (Homo sapiens, UniProt Q96BR1)
T3 sequence (Q96BR1 1-496): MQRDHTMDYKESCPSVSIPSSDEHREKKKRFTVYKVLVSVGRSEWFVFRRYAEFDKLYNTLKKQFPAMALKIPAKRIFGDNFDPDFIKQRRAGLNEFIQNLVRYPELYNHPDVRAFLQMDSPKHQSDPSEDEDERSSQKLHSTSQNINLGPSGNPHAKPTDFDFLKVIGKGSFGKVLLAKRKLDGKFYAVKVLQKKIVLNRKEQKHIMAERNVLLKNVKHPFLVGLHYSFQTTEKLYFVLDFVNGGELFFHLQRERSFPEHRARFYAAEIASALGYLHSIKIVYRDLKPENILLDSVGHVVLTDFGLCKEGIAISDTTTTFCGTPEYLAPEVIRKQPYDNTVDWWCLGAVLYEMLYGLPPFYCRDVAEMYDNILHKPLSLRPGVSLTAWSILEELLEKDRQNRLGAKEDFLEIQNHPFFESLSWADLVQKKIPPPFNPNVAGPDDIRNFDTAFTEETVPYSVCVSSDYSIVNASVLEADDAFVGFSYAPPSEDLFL

[6] = kinase WNK1, 1 µmol/L single concentration, ref DOI: 10.1158/1535-7163.MCT-18-0877
[7] = kinase PDK1, 1 µmol/L single concentration, ref DOI: 10.1158/1535-7163.MCT-18-0877
[8] = kinase EPHA2, 1 µmol/L single concentration, ref DOI: 10.1158/1535-7163.MCT-18-0877
[9] = kinase EPHA3, 1 µmol/L single concentration, ref DOI: 10.1158/1535-7163.MCT-18-0877
[10] = kinase SGK3, 1 µmol/L single concentration, ref DOI: 10.1158/1535-7163.MCT-18-0877
[11] = kinase WNK1, 1 µmol/L single concentration, ref DOI: 10.1371/journal.pone.0092146
[12] = kinase PDK1, 1 µmol/L single concentration, ref DOI: 10.1371/journal.pone.0092146
[13] = kinase EPHA2, 1 µmol/L single concentration, ref DOI: 10.1371/journal.pone.0092146
[14] = kinase EPHA3, 1 µmol/L single concentration, ref DOI: 10.1371/journal.pone.0092146
[15] = kinase SGK3, 1 µmol/L single concentration, ref DOI: 10.1371/journal.pone.0092146

Row | SMILES | %-inhibition at 1 µmol/L, WNK1 [1, 6] | %-inhibition at 1 µmol/L, PDK1 [2, 7] | %-inhibition at 1 µmol/L, EPHA2 [3, 8] | %-inhibition at 1 µmol/L, EPHA3 [4, 9] | %-inhibition at 1 µmol/L, SGK3 [5, 10] | %-inhibition at 1 µmol/L, WNK1 [1, 11] | %-inhibition at 1 µmol/L, PDK1 [2, 12] | %-inhibition at 1 µmol/L, EPHA2 [3, 13] | %-inhibition at 1 µmol/L, EPHA3 [4, 14] | %-inhibition at 1 µmol/L, SGK3 [5, 15] | other results
1 | O=C(c1ccc(F)c(F)c1Nc1ccc(I)cc1F)N1CC(O)([C@@H]2CCCCN2)C1 [cobimetinib] | -0.124% | -1.65% | 2.79% | 2% | -4% | – | – | – | – | – | –
2 | CC(C)(C)c1nc(-c2cccc(NS(=O)(=O)c3c(F)cccc3F)c2F)c(-c2ccnc(N)n2)s1 [dabrafenib] | – | – | – | – | – | 1.14% | -5.38% | 7% | 18% | 0.0854% | –
3 | Cc1cc(Nc2ncc(Cl)c(Nc3ccccc3S(=O)(=O)C(C)C)n2)c(OC(C)C)cc1C1CCNCC1 [ceritinib] | 4.45% | -2.25% | 5.69% | 1.74% | -0.738% | – | – | – | – | – | –
4 | CCc1cc2c(cc1N1CCC(N3CCOCC3)CC1)C(C)(C)c1[nH]c3cc(C#N)ccc3c1C2=O [alectinib] | 6% | -2.12% | 1.88% | 3.25% | 1.51% | – | – | – | – | – | –
5 | CCCS(=O)(=O)Nc1ccc(F)c(C(=O)c2c[nH]c3ncc(-c4ccc(Cl)cc4)cc23)c1F [vemurafenib] | – | – | – | – | – | 10% | -4% | 0.715% | -7.52% | -2.38% | –
6 | COc1cc(N2CCC(N3CCN(C)CC3)CC2)ccc1Nc1ncc(Cl)c(Nc2ccccc2P(C)(C)=O)n1 [brigatinib] | – | – | – | – | – | – | – | – | – | – | %-inhibition at 1 µmol/L, WNK1 [1]: 5%; %-inhibition at 1 µmol/L, PDK1 [2]: 4.31%; %-inhibition at 1 µmol/L, EPHA2 [3]: -2.16%; %-inhibition at 1 µmol/L, EPHA3 [4]: 0.198%; %-inhibition at 1 µmol/L, SGK3 [5]: -2.26%
7 | CC(=O)Nc1cccc(-n2c(=O)n(C3CC3)c(=O)c3c(Nc4ccc(I)cc4F)n(C)c(=O)c(C)c32)c1 [trametinib] | – | – | – | – | – | -1.42% | -5.52% | -8.53% | -6% | 0.769% | –
8 | CC#CC(=O)N1CCC[C@H]1c1nc(-c2ccc(C(=O)Nc3ccccn3)cc2)c2c(N)nccn12 [acalabrutinib] | 5.36% | -1.47% | -3.6% | -2% | -12% | – | – | – | – | – | –
9 | C=CC(=O)Nc1cc(Nc2nccc(-c3cn(C)c4ccccc34)n2)c(OC)cc1N(C)CCN(C)C [osimertinib] | -1.88% | 0.0271% | 3.35% | 0.753% | 3.6% | – | – | – | – | – | –
10 | CO[C@@H]1[C@H](N(C)C(=O)c2ccccc2)C[C@H]2O[C@]1(C)n1c3ccccc3c3c4c(c5c6ccccc6n2c5c31)C(=O)NC4 [midostaurin] | 5.36% | 98% | 3.36% | 8% | 16% | – | – | – | – | – | –
11 | C=CC(=O)N1CCC[C@@H](n2nc(-c3ccc(Oc4ccccc4)cc3)c3c(N)ncnc32)C1 [ibrutinib] | 2.3% | -2% | 7% | 3.8% | 0.579% | – | – | – | – | – | –
12 | C[C@@H](Oc1cc(-c2cnn(C3CCNCC3)c2)cnc1N)c1c(Cl)ccc(F)c1Cl [crizotinib] | – | – | – | – | – | -3% | -5% | 86% | 19% | -3% | –
